According to US20180214449A1, “CANCER THERAPY USING JAK INHIBITOR IN COMBINATION WITH MAPK INHIBITORS” (UBRX, INC., priority 2015, published 2018):

What was measured:
UACC257 = test: IC50 to B-Raf inhibitors in melanoma cell line; format: cell-based; conditions: Homo sapiens, UACC-257
UACC1308 = test: IC50 to B-Raf inhibitors in melanoma cell line; format: cell-based; conditions: Homo sapiens
UACC3291 = test: IC50 to B-Raf inhibitors in melanoma cell line; format: cell-based; conditions: Homo sapiens
UACC612 = test: IC50 to B-Raf inhibitors in melanoma cell line; format: cell-based; conditions: Homo sapiens
Protocol: (§1) Melanoma cells A375 and Lu1205 were cultured in Dulbecco's modified Eagle's medium (DMEM) supplemented with 10% fetal bovine serum (FBS), and penicillin-streptomycin. The melanoma UACC cell lines (UACC91, UACC502, UACC612, UACC647, and UACC1113) were maintained in Rosewell Park Memorial Institute Medium (RPMI1640) supplemented with 10% FBS and penicillin-streptomycin. In order to develop resistance to B-Raf inhibitor PLX-4032, the cells were grown with increasing concentrations of the inhibitor at each passage and eventually maintained in appropriate media containing either 5 μM (for A375 and Lu1205 cells) or 1 μM (for UACC cells) PLX-4032.
(§2) Melanoma cell lines UACC91, UACC502, UACC612, UACC647, and UACC1113 were treated with B-Raf inhibitors PLX-4032 or PLX-4720, and the IC50 values were correlated with RNF125 expression levels. The RNF125 expression was determined using RNA-Sequencing (RNA-Seq) methods and expressed in fragments per kilobase per million reads unit (FPKM).

UACC502 = test: IC50 to B-Raf inhibitors in melanoma cell line; format: cell-based; conditions: Homo sapiens
Protocol: as §1, §2

UACC647 = test: IC50 to B-Raf inhibitors in melanoma cell line; format: cell-based; conditions: Homo sapiens
Protocol: as §1, §2

UACC91 = test: IC50 to B-Raf inhibitors in melanoma cell line; format: cell-based; conditions: Homo sapiens
Protocol: as §1, §2

UACC903 = test: IC50 to B-Raf inhibitors in melanoma cell line; format: cell-based; conditions: Homo sapiens, UACC-903
UACC558 = test: IC50 to B-Raf inhibitors in melanoma cell line; format: cell-based; conditions: Homo sapiens
UACC2641 = test: IC50 to B-Raf inhibitors in melanoma cell line; format: cell-based; conditions: Homo sapiens
melanoma patients = conditions: clinical trial data; cited from earlier work
[1] = system: A375, Lu1205, and several UACC melanoma cell lines resistant to BRAF inhibitors or BRAF and MEK inhibitors; test: Example 2: growth in soft agar of resistant melanoma cells; format: cell-based, human; conditions: two weeks in soft agar, 0-10 μM
Protocol: The cells are grown for two weeks in soft agar, in the presence of 0-10 μM of ruxolitinib (JAK1 inhibitor), dabrafenib (BRAF inhibitor), trametinib (MEK inhibitor) as single agents or in combination therapies, using a constant volume of inhibitor for all the conditions.

[2] = system: B-Raf inhibitor resistant cells A375 or Lu1205R; test: Growth in soft agar of B-Raf inhibitor resistant cells; format: cell-based, human; conditions: two weeks in soft agar
Protocol: Melanoma cells A375 and Lu1205 were cultured in Dulbecco's modified Eagle's medium (DMEM) supplemented with 10% fetal bovine serum (FBS), and penicillin-streptomycin. The melanoma UACC cell lines (UACC91, UACC502, UACC612, UACC647, and UACC1113) were maintained in Rosewell Park Memorial Institute Medium (RPMI1640) supplemented with 10% FBS and penicillin-streptomycin.

[3] = system: other protein tyrosine kinases; conditions: read-out: IC50s for other protein tyrosine kinases; units printed within the range (nM to μM); cited from earlier work
[4] = system: mouse T-cell lymphoma cells; conditions: read-out: IC50, IL-2 and IL-4-dependent proliferation; cited from earlier work
JAK2 = JAK2 (Homo sapiens, UniProt O60674); conditions: cited from earlier work
Sequence of JAK2 (O60674 whole entry, species assumed): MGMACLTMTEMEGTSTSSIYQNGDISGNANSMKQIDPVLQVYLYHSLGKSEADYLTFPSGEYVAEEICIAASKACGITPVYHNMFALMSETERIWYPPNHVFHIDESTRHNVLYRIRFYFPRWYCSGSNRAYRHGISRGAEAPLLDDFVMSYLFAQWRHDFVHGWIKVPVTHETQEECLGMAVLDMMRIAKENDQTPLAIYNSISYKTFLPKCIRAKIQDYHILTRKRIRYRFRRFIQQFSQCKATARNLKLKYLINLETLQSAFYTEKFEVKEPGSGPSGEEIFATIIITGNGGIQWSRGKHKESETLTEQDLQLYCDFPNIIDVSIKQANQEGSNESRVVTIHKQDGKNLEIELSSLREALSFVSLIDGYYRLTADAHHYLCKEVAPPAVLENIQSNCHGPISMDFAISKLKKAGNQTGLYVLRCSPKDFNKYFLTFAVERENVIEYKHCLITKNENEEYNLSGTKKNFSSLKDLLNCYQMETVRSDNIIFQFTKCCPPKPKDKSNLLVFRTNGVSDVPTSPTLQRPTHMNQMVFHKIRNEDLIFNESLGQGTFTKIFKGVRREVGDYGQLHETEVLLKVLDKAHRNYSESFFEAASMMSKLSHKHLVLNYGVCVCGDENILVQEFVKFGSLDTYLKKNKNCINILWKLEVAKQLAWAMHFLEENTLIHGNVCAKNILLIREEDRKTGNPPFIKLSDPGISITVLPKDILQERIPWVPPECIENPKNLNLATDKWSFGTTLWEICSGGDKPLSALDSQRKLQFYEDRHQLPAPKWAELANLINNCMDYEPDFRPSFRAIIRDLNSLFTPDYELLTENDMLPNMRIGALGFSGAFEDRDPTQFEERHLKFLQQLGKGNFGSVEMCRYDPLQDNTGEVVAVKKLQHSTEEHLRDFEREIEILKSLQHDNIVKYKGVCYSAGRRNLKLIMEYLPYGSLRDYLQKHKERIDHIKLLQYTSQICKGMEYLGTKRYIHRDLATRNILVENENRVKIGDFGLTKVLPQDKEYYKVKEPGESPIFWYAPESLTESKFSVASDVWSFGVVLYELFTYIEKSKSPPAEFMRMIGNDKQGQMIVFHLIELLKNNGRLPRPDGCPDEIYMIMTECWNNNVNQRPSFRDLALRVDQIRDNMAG

JAK1 = conditions: cited from earlier work

Row | IC50 (UACC257) | IC50 (UACC1308) | IC50 (UACC3291) | IC50 (UACC612) | IC50 (UACC502) | IC50 (UACC647) | IC50 (UACC91) | IC50 (UACC903) | IC50 (UACC558) | IC50 (UACC2641) | SMILES | growth in soft agar [2] | other results
1 | 150 nM | 60 nM | 60 nM | 3780 nM | 550 nM | 3370 nM | 301 nM | 250 nM | 690 nM | 5880 nM | CCCS(=O)(=O)Nc1ccc(F)c(C(=O)c2c[nH]c3ncc(-c4ccc(Cl)cc4)cc23)c1F [PLX-4032, vemurafenib] | – | –
2 | 140 nM | 90 nM | 90 nM | 5480 nM | 780 nM | 6720 nM | 532 nM | 250 nM | 420 nM | 4590 nM | CCCS(=O)(=O)Nc1ccc(F)c(C(=O)c2c[nH]c3ncc(Cl)cc23)c1F [PLX-4702] | – | –
3 | – | – | – | – | – | – | – | – | – | – | CC(C)(C)c1nc(-c2cccc(NS(=O)(=O)c3c(F)cccc3F)c2F)c(-c2ccnc(N)n2)s1 [dabrafenib] | – | time until resistance occurs (melanoma patients): 6 to 7 months; growth of the melanoma cells in soft agar [1]: does not block the growth
4 | – | – | – | – | – | – | – | – | – | – | COc1cc2ncnc(Nc3ccc(F)c(Cl)c3)c2cc1OCCCN1CCOCC1 [Gefitinib] | did not inhibit growth | –
5 | – | – | – | – | – | – | – | – | – | – | CC(C)(C)c1nc2c3cc[nH]c(=O)c3c3cc(F)ccc3c2[nH]1 [Pyridone 6] | – | IC50 [3]: ≥ 130 nM; IC50 [4]: 50 to 100 nM
6 | – | – | – | – | – | – | – | – | – | – | Cc1cc(Nc2nc(N[C@@H](C)c3ncc(F)cn3)ncc2Cl)n[nH]1 [AZD1480] | did not inhibit growth | IC50 (JAK2): 0.26 nM; IC50 (JAK1): 1.3 nM
